Data reported in US10179782B2, “Substituted sulfonamide compounds” (Genentech, Inc., priority 2016, dated 2019).

Target: T1, human TRPA1 (Homo sapiens, UniProt O75762)
T1 construct: expressed in transfected cells; host or cells: CHO cells
Test: TRPA1 FLIPR Tetra calcium influx assay in CHO cells (block of cinnamaldehyde-induced calcium influx)
Assay type: cell-based
Details: Table 1; CHO cells expressing TRPA1; agonist cinnamaldehyde 75 uM; with vs without substituent at R2/R3; read-out: hTRPA1 CHO Ca2+ AUC EVO (IC50)
Method: IC50s (effective concentration) of compounds on the human and rat TRPA1 channels were determined using a FLIPR Tetra instrument. CHO cells expressing TRPA1 were plated into 384-well plates, incubated overnight at 37 C, and loaded with BD calcium indicator dye for 1 hr at 37° C. followed by 15 minutes at room temperature. The assay buffer was Hank's Balanced Salt Solution (HBSS) containing 20 mM HEPES (pH readjusted to 7.4) along with 0.02% BSA.
Following dye load and plate cool down, compounds were added to the cells using FLIPR Tetra. Plates were then incubated with compounds for 20 minutes at room temperature prior to adding agonist. Following this incubation, ˜EC80 concentration of cinnamaldehyde (75 uM for human TRPA1 and 45 uM for rat TRPA1) was added to active the channels and block of cinnamaldehyde induced calcium influx was measured.
IC50s were fit with a standard Hill function, keeping the Hill coefficient (n) fixed to 1.5. Fixing the Hill coefficient will generally reduce variability of the IC50 determination. The IC50s were individually examined to make sure the MIN and MAX points were set correctly prior to validation of the results.

T1 sequence (O75762 whole entry): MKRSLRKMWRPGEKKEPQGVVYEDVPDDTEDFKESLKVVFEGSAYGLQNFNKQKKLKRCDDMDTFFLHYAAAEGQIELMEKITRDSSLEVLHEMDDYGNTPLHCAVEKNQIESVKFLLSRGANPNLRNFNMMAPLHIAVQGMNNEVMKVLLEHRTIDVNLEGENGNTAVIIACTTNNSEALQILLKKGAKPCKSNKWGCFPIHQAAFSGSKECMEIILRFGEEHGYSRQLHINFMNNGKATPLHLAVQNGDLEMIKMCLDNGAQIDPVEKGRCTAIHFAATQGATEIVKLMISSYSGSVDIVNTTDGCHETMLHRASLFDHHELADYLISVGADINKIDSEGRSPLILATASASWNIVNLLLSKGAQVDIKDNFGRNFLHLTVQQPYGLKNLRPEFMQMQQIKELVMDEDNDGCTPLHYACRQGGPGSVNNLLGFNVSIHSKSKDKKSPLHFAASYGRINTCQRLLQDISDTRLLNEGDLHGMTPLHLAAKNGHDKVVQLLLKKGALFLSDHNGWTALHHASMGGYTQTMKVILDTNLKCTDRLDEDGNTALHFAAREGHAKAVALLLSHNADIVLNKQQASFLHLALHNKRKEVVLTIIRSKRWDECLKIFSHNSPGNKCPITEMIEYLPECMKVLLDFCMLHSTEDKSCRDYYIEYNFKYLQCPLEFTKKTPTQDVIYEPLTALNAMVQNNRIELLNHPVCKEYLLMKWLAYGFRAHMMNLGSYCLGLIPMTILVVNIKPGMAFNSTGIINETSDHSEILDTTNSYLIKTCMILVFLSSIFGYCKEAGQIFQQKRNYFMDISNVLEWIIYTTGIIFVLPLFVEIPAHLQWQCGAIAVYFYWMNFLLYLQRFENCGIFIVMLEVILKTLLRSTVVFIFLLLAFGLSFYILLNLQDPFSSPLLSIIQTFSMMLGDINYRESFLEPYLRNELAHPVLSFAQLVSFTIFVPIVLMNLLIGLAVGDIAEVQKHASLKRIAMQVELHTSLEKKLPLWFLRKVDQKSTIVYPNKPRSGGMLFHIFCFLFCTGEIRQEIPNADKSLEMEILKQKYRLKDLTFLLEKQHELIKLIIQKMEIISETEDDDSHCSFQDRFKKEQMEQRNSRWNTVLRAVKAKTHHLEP

Structure (SMILES)	IC50 [µM]
O=C(NCc1ccnc(-c2cnc(C(F)(F)F)nc2)c1)[C@@H]1C[C@@H](F)CN1S(=O)(=O)c1ccc(F)cc1 [(2S,4R)-4-fluoro-1-(4-fluorophenyl)sulfonyl-N-[[2-[2-(trifluoromethyl)pyrimidin-5-yl]-4-pyridyl]methyl]pyrrolidine-2-carboxamide, reference compound]	0.129

Same assay, conditions: Table 2; CHO cells expressing TRPA1; agonist cinnamaldehyde 75 uM; 20 min compound incubation; Hill coefficient fixed to 1.5; read-out: hTRPA1 CHO Ca2+ AUC EVO (IC50)

Structure (SMILES)	IC50 [µM]
C[C@H]1[C@H](F)C[C@@H](C(=O)NCc2cn(-c3cnc(C(F)(F)F)nc3)nc2C(F)F)N1S(=O)(=O)c1ccc(F)cc1 [Example 7, (2S,4R,5S)-N-[[3-(difluoromethyl)-1-[2-(trifluoromethyl)pyrimidin-5-yl]pyrazol-4-yl]methyl]-4-fluoro-1-(4-fluorophenyl)sulfonyl-5-methyl-pyrrolidine-2-carboxamide]	0.0262
C[C@H]1[C@H](F)C[C@@H](C(=O)NCc2cc(-c3cnc(C(F)(F)F)nc3)ncc2F)N1S(=O)(=O)c1cc2ccccc2s1 [Example 98, (2S,4R,5S)-1-(benzothiophen-2-ylsulfonyl)-4-fluoro-N-[[5-fluoro-2-[2-(trifluoromethyl)pyrimidin-5-yl]-4-pyridyl]methyl]-5-methyl-pyrrolidine-2-carboxamide]	0.00561
C[C@H]1[C@H](F)C[C@@H](C(=O)NCc2cc([C@H]3CC[C@@H](C(F)(F)F)CC3)ncc2F)N1S(=O)(=O)c1ccc(F)cc1 [Example 54, (2S,4R,5S)-4-fluoro-1-(4-fluorophenyl)sulfonyl-N-[[5-fluoro-2-[4-(trifluoromethyl)cyclohexyl]-4-pyridyl]methyl]-5-methyl-pyrrolidine-2-carboxamide]	0.00638
C[C@H]1[C@H](F)C[C@@H](C(=O)NCc2cc(-c3cnc(C(F)(F)F)nc3)c(Cl)cn2)N1S(=O)(=O)c1ccc(F)cc1 [Example 32, (2S,4R,5S)-N-((5-chloro-4-(2-(trifluoromethyl)pyrimidin-5-yl)pyridin-2-yl)methyl)-4-fluoro-1-(4-fluorophenylsulfonyl)-5-methylpyrrolidine-2-carboxamide]	0.0104
C[C@H]1[C@H](C#N)C[C@@H](C(=O)NCc2cc(-c3cnc(C(F)(F)F)nc3)ncc2F)N1S(=O)(=O)c1ccc(F)cc1 [Example 84, (2S,4R,5S)-4-cyano-1-(4-fluorophenyl)sulfonyl-N-[[5-fluoro-2-[2-(trifluoromethyl)pyrimidin-5-yl]-4-pyridyl]methyl]-5-methyl-pyrrolidine-2-carboxamide]	0.0653
C[C@H]1[C@H](F)C[C@@H](C(=O)NCc2cn([C@H]3CC[C@H](C(F)(F)F)CC3)nc2C(F)(F)F)N1S(=O)(=O)c1ccc(F)cc1 [Example 147, (2S,4R,5S)-4-fluoro-1-(4-fluorophenyl)sulfonyl-5-methyl-N-[[3-(trifluoromethyl)-1-[4-(trifluoromethyl)cyclohexyl]pyrazol-4-yl]methyl]pyrrolidine-2-carboxamide]	0.0245
O=C(NCc1cc(-c2ccc(S(F)(F)(F)(F)F)cc2)ncc1F)[C@@H]1C[C@@H](F)CN1S(=O)(=O)c1ccc(F)cc1 [Example 59, (2S,4R)-4-fluoro-N-[[5-fluoro-2-[4-(pentafluoro-sulfanyl)phenyl]-4-pyridyl]methyl]-1-(4-fluorophenyl)sulfonyl-pyrrolidine-2-carboxamide]	0.161
C[C@H]1[C@H](F)C[C@@H](C(=O)NCc2cc(OCC3(C(F)(F)F)CC3)nc(C3CC3)n2)N1S(=O)(=O)c1ccc(F)cc1 [Example 83, (2S,4R,5S)-N-[[2-cyclopropyl-6-[[1-(trifluoromethyl)cyclopropyl]methoxy]pyrimidin-4-yl]methyl]-4-fluoro-1-(4-fluorophenyl)sulfonyl-5-methyl-pyrrolidine-2-carboxamide]	0.147
C[C@H]1[C@H](F)C[C@@H](C(=O)NCc2cc(-c3cnc(C(F)(F)F)nc3)ncc2C(F)(F)F)N1S(=O)(=O)c1cncc(F)c1 [Example 159, (2S,4R,5S)-4-fluoro-1-[(5-fluoro-3-pyridyl)sulfonyl]-5-methyl-N-[[5-(trifluoromethyl)-2-[2-(trifluoromethyl)pyrimidin-5-yl]-4-pyridyl]methyl]pyrrolidine-2-carboxamide]	0.00231
C[C@H]1[C@H](F)C[C@@H](C(=O)NCc2cc([C@H]3C[C@@H](OC(F)(F)F)C3)ncc2F)N1S(=O)(=O)c1ccc(F)cc1 [Example 127, (2S,4R,5S)-4-fluoro-1-(4-fluorophenyl)sulfonyl-N-[[5-fluoro-2-[3-(trifluoromethoxy)cyclobutyl]-4-pyridyl]methyl]-5-methyl-pyrrolidine-2-carboxamide]	0.00427
C[C@H]1[C@H](F)C[C@@H](C(=O)NCc2cc(-c3cnc(C(F)(F)F)nc3)nc(C(F)(F)F)n2)N1S(=O)(=O)c1ccc(F)cc1 [Example 108, (2S,4R,5S)-4-fluoro-1-(4-fluorophenyl)sulfonyl-5-methyl-N-[[2-(trifluoromethyl)-6-[2-(trifluoromethyl)pyrimidin-5-yl]pyrimidin-4-yl]methyl]pyrrolidine-2-carboxamide]	0.002
C[C@H]1[C@H](F)C[C@@H](C(=O)NCc2cc(-c3cnc(C(F)(F)F)nc3)ccc2F)N1S(=O)(=O)c1ccc(F)cc1 [Example 44, (2S,4R,5S)-4-fluoro-N-(2-fluoro-5-(2-(trifluoromethyl)pyrimidin-5-yl)benzyl)-1-(4-fluorophenylsulfonyl)-5-methylpyrrolidine-2-carboxamide]	0.00734
C[C@H]1[C@H](F)C[C@@H](C(=O)NCc2cc(OCCOC(F)(F)F)c(F)cn2)N1S(=O)(=O)c1ccc(F)cc1 [Example 82, (2S,4R,5S)-4-fluoro-1-(4-fluorophenyl)sulfonyl-N-[[5-fluoro-4-[2-(trifluoromethoxy)ethoxy]-2-pyridyl]methyl]-5-methyl-pyrrolidine-2-carboxamide]	0.166
O=C(NCc1cc(-c2cnc(C(F)(F)F)nc2)ncn1)[C@@H]1[C@H]2C[C@H]2CN1S(=O)(=O)c1ccc(F)cc1 [Example 65, (1S,2S,5R)-3-(4-fluorophenyl)sulfonyl-N-[[6-[2-(trifluoromethyl)pyrimidin-5-yl]pyrimidin-4-yl]methyl]-3-azabicyclo[3.1.0]hexane-2-carboxamide]	0.0648
O=C(NCc1cc(-c2cnc(C(F)(F)F)nc2)ncn1)[C@H]1CC[C@@H](C(F)(F)F)N1S(=O)(=O)c1ccc(F)cc1 [Example 22, (2R,5S)-1-(4-fluorophenyl)sulfonyl-5-(trifluoromethyl)-N-[[6-[2-(trifluoromethyl)pyrimidin-5-yl]pyrimidin-4-yl]methyl]pyrrolidine-2-carboxamide]	3.61
C[C@H]1[C@H](F)C[C@@H](C(=O)NCc2cc(-c3ncc(C(F)(F)F)s3)c(F)cn2)N1S(=O)(=O)c1ccc(F)cc1 [Example 96, (2S,4R,5S)-4-fluoro-1-(4-fluorophenyl)sulfonyl-N-[[5-fluoro-4-[5-(trifluoromethyl)thiazol-2-yl]-2-pyridyl]methyl]-5-methyl-pyrrolidine-2-carboxamide]	0.0225
C[C@H]1[C@H](F)C[C@@H](C(=O)NCc2cc(-c3cnc(C(F)(F)F)nc3)ncc2C(F)F)N1S(=O)(=O)c1ccc(F)cc1 [Example 102, (2S,4R,5S)—N-((5-(difluoromethyl)-2-(2-(trifluoromethyl)pyrimidin-5-yl)pyridin-4-yl)methyl)-4-fluoro-1-(4-fluorophenylsulfonyl)-5-methylpyrrolidine-2-carboxamide]	0.00407
